This note sets out measurements from patent US11390580B2, “Anti-fungals targeting the synthesis of fungal shingolipids” (THE RESEARCH FOUNDATION FOR THE STATE UNIVERSITY OF NEW YORK, priority 2014, dated 2022).

Values after ≈ are worked out from the molar mass of the structure shown. Values joined by “and” are separate entries in the source; they are usually repeats but may differ in a detail not shown here. Equal values may be shown once. Read-outs that look alike come from different tables or passages of the source.

The subject of data set [1] is C. neoformans H99. Briefly: Comparison studies, intravenous (CNS) cryptococcosis survival. It counts as in vivo, mice. The method, then:
For survival studies, 4-week old CBA/J female mice (Jackson Laboratory, Bar Harbor, Me.) were used. Total of forty mice were infected by tail vein injection of 200 μL containing 10^5 cells of C. neoformans H99 and were randomly separated into 5 groups (8 mice per group). Treatment started within 2 hours of infection. The treated mice received an intraperitoneal injection of 1.2 mg/kg/day of BHBM, 1, amphotericin B or 10 mg/kg/day of fluconazole in 100 μL final volume of PBS containing 0.4% DMSO. Untreated mice, received 100 μL of PBS/0.4% DMSO. Mice were fed ad-libitum and monitored closely for sign of discomfort and meningitis. Mice showing abnormal gait, lethargy, tremor, significant loss of body weight, or inability to reach water or food were sacrificed and survival was counted until that day.

A further data set concerns Pneumocystis jiroveci. Description: In vitro testing by ATP content (luciferin-luciferase). Conditions: read-out: percentage inhibition of ATP.
The test system of a further data set is Pneumocystis murina. The description is as above. Conditions: read-out: percentage inhibition of ATP.
The test system of data set [2] is P. murina.
Data set [3] in a line: In vitro toxicity, MTT assay. Conditions: mouse, J774.16 macrophage cells. A general note: Tetrazolium assays rely on reduction of a dye to a coloured formazan, in cell work by metabolically active cells.
The subject of the next data set is C. neoformans (H99). Briefly: Transmission electron microscopy of treated cells. Particulars: 4 μg/mL, 6 hours.
The subject of data set [4] is P. murina. The source holds these as a separate data set.
In data set [5] the test system is C. neoformans. Briefly: Resistance assay, daily passages in sub-MIC drug. Particulars: 15 days of passages below the MIC.
Data set [6] relates to synthesis of GlcCer in C. neoformans cells. Description: In vivo labeling with 3H palmitate, TLC of GlcCer. Particulars: 3H palmitate labeling.
A short description of data set [7]: In vivo toxicity in uninfected mice. Conditions: treated daily for 60 days.
For data set [8], the system named is C. neoformans. Briefly: Synergistic assay (fractional inhibitory index, FIC).
For data set [9], the system named is synthesis of GlcCer in mammalian (J774) cells. Briefly: In vivo labeling with 3H palmitate, TLC of GlcCer. In kind it is cell-based, murine. Particulars: 3H palmitate labeling.
A short description of another data set: Solubility. Conditions: at 1 mg/ml concentration. It counts as physicochemical.
Another data set has as its system A549 cell line. Description: In vitro toxicity. In kind it is cell-based.
Another data set concerns Candida albicans SC-5314. Description: Animal studies for candidiasis (intravenous infection). It counts as in vivo, mice. Here is the method:
For survival studies, 8-week old CBA/J female mice (Jackson Laboratory) were used. Eight mice per treatment or control group were used. Mice were infected by intravenous inoculation of 100 μL containing 1×10^5 cells of Candida albicans SC-5314 strain. […] Untreated mice, received 100 μL of PBS/0.4% DMSO. Mice were feed ad-libitum and monitored closely for sign of discomfort. At the end of the survival study, tissue burden culture was performed in mice that survived the infection. Mice were sacrificed and their organs were extracted and homogenized in 10 ml sterile PBS using homogenizer. Organ homogenates were diluted 10 times in PBS, and 100 μL was plated on YPD agar plates and incubated at 30° C. for 72 hours for CFU count.

In data set [10] the test system is C. neoformans. Briefly: In vitro killing assay (time-kill, CFU). In kind it is cell-based, Cryptococcus neoformans. The method, then:
At the illustrated time points, aliquots were taken and diluted and 100 μL was plated onto yeast peptone dextrose (YPD) plates. YPD plates were incubated in a 30° C. incubator and, after 72 hours, colony forming units (CFU) were counted and recorded.

The subject of data set [11] is C. neoformans sphingolipids. Briefly: Sphingolipid levels by TLC and lipid mass spectrometry. It counts as cell-based, Cryptococcus neoformans. Particulars: TLC, confirmed by mass spectrometry. The method, then: Labeling fungal cells. […] Samples without drug were included as control. Before lipid extraction, lipid internal standards (C17 ceramide and C17 sphingosine) were added. Lipids were then extracted following the methods of […] and Bligh and Dyer and one fourth of the sample was aliquoted for determination of the inorganic phosphate. The remainder of the sample was subjected to base hydrolysis and then analyzed using LC/MS. Results were normalized with the inorganic phosphate levels.

For a further data set, the system named is Candida spp. Description: In vitro susceptibility testing. It counts as cell-based. Particulars: most Candida spp examined.
The subject of data set [12] is P. murina. Description: Animal studies for pneumocystosis, CD4-depleted mice. Conditions: mouse, in vivo.
Data set [13] deals with C. neoformans H99. Description: Animal studies for cryptococcosis (intranasal infection). In kind it is in vivo, mice.
The subject of another data set is Cryptococcus neoformans. Description: In vitro susceptibility testing (MIC). It counts as cell-based.
The subject of the next data set is L2 cell line. Description: In vitro toxicity. It counts as cell-based.

Consider `OC(Cn1cncn1)(Cn1cncn1)c1ccc(F)cc1F` [fluconazole], for which, in the data set with C. neoformans H99 [1] (mouse, in vivo), the average survival was 10 ± 2 days and 10.0 ± 2.0 days.
`N=C(N)c1ccc(OCCCCCOc2ccc(C(=N)N)cc2)cc1` [Pentamidine, reference compound]: the inhibition at 1 µg/mL in the data set with Pneumocystis jiroveci (24 h) is 45.7%; in the data set on Pneumocystis jiroveci (48 h), 86.5%; with Pneumocystis jiroveci (72 h), 84.2%; in the data set on Pneumocystis jiroveci (96 h), 81.4%; in the data set on Pneumocystis murina (24 h) it was 78.2%; with Pneumocystis murina (48 h), 80.3%. In addition, the inhibition at 1 µg/mL with Pneumocystis murina (72 h) was determined as 74.1%; with Pneumocystis murina (96 h), 27.8%.
Regarding `O=C(NN=Cc1ccc(O)c(Br)c1)c1cccc(Br)c1` [Compound 1, 3-bromo-N′-(3-bromo-4-hydroxybenzylidene) benzohydrazide], in the data set on P. murina [2] (14 days of treatment), the survival entry is “improved survival”. Further, the “number of asci in the lung” value in the data set on P. murina [2] (day 14) is given as “significantly decreased”. In [3], this compound had an EC50 at 48 h of 50 µg/mL (≈ 126 µM). Besides, in the data set with C. neoformans (H99), the “number of vacuoles per μm^2 of cell surface area” value is reported as 0.93±0.54. In addition, the “toxicity in mice immunosuppressed with corticosteroids” value in the data set with P. murina [4] was “some toxicity”. Also, in the data set on P. murina [4] (1.25 mg/kg/day and 12.5 mg/kg/day for 14 days), the “asci and troph burdens vs vehicle” value was “significantly reduced”. In addition, the “survival vs control steroid negative controls” value in the data set with P. murina [4] (1.25 and 12.5 mg/kg/day, 14 days) was “did not increase survival”. The development of resistance entry in the data set with C. neoformans [5] is recorded as “do not develop resistance”. For the same compound, the “inhibition of the synthesis of GlcCer” value is on record as “significantly inhibit the synthesis of GlcCer” in data set [6], “no significant changes” in data set [9] and “not in mammalian (J774) cells” in [9] (listed as #5285729). Besides, the “appearance, weight, physical activity and behavior” value in data set [7] was “appeared normal”. Also, the figures for the FIC index in the data set on C. neoformans [8] (combined with Amphotericin B), in the data set with C. neoformans [8] (combined with Fluconazole) and in the data set with C. neoformans [8] (combined with caspofungin) were 0.77, 0.47 and 1, respectively. In addition, the interaction result in the data set with C. neoformans [8] (combined with Tunicamycin) is given as “additive”. Further, the DMSO required in the data set “Solubility” was 50%. Besides, the toxicity entry in the data set with A549 cell line and with L2 cell line was “slight to moderate toxicity” throughout. In the data set on Candida albicans SC-5314 (1.2 mg/kg/day intraperitoneally, after 21 days of infection), this compound registered a mice alive of 75%. Moreover, in the data set with Candida albicans SC-5314 (day 21, surviving treated mice), the “clearance of infection (tissue burden)” value is on record as “able to clear C. albicans infection”. Further, the type of killing result with C. neoformans [10] (time-kill assay) was “time-dependent killing”. Further, the dead cells in the data set on C. neoformans [10] (within 24 hours) was 100%. The sphingosine level result in data set [11] is “accumulation of sphingosines”. The in vitro susceptibility entry with Candida spp is “resistant”. Besides, the signs of toxicity entry with P. murina [12] is reported as “no signs of toxicity”. This compound gave a mice surviving infection with C. neoformans H99 [13] (1.2 mg/Kg/day intraperitoneally, up to 60 days) of 70%. Besides, the “fungal burden in brain” value in the data set on C. neoformans H99 [13] (1.2 mg/Kg/day, day 60) is listed as “No C. neoformans cells were found in brains”. The “fungal burden in lung” value with C. neoformans H99 [13] (1.2 mg/Kg/day, day 60, compared to infected untreated mice) is listed as “decrease the fungal burden in the lung”. Also, in the data set with C. neoformans H99 [13] (day 60), the brain histology result was “no fungal cells and normal structure”. Besides, the lung histology result in the data set on C. neoformans H99 [13] (day 60) was “granulomatous response limited in few areas of the lung”. For the same compound, in the data set with Cryptococcus neoformans, the “antifungal activity of derivatives” value is reported as “improved activity”. Also, in the data set with Cryptococcus neoformans (Cryptococcus neoformans, read-out: MFC (minimum fungicidal concentration)), the MFC stood at 1.2 µg/mL (≈ 3.01 µM).
In the data set with C. neoformans H99 [1] (IP, 1.2 mg/kg/day BHBM, 1, amphotericin B, 10 mg/kg/day fluconazole), `C[C@@H]1[C@H](O)[C@@H](C)/C=C/C=C/C=C/C=C/C=C/C=C/C=C/[C@H](O[C@@H]2O[C@H](C)[C@@H](O)[C@H](N)[C@@H]2O)C[C@@H]2O[C@](O)(C[C@@H](O)C[C@@H](O)[C@H](O)CC[C@@H](O)C[C@@H](O)CC(=O)O[C@H]1C)C[C@H](O)[C@H]2C(=O)O` [Amphotericin B] showed an average survival of 23.5 ± 6.5 days.

The term inhibition denotes the share of the control response that was lost under treatment. A word on the EC50: it is the concentration at which the effect is half-maximal. A low value points to higher potency in that assay.
